Source: PMC11266932, “Enhanced absorption of prenylated cinnamic acid derivatives from Brazilian green propolis by turmeric in humans and rats” (Food Science & Nutrition, 2024)

Legend:
[1] = molecular target: T1, multidrug resistance 1 (MDR1), P‐gp (Homo sapiens, UniProt P08183); test: Bidirectional transport assay across MDCK II-MDR1 cell monolayer; type: in vitro ADME; settings: for Net flux ratio: ER of MDCK II‐MDR1 divided by ER of parent MDCK II, >2 = transporter-mediated efflux
T1 construct: host or cells: MDCK II (Madin-Darby canine kidney) cells overexpressing MDR1
Protocol: (§1) The Madin‐Darby canine kidney (MDCK II) cell line and MDCK II cells overexpressing multidrug resistance 1 (MDR1) or breast cancer resistance protein (BCRP) were purchased from the Netherlands Cancer Institute (Amsterdam, Netherlands) and SOLVO Biotechnology (Szeged, Hungary), respectively. The cell lines were routinely cultured in Dulbecco's modified Eagle's medium (DMEM) containing 10% fetal bovine serum and 1% penicillin/streptomycin at 37°C in 5% CO2. All cells were seeded in a feeder tray at a density of 3–6 × 10^4 cells/well and grown for 3–4 days. On the day of the transport study, cell monolayers were washed with Hanks' balanced salt solution (HBSS) buffer containing 0.1% BSA (pH 7.4) and incubated at 37°C for 20 min. Artepillin C and drupanin dissolved in DMSO (10 mM) were added to the transport buffer (HBSS containing 10 mM HEPES, 0.2% glucose, 0.1% BSA, pH 7.4) to a final concentration of 10 μM and then loaded into the apical or basolateral chamber. After 120 min of incubation, 150 μL of the aliquots were collected from the donor and receiver chambers and mixed with an equal volume of 50% methanol. After centrifugation at 3000 rpm for 10 min at 4°C, the supernatants were filtered and subjected to LC–MS/MS analysis.
(§2) The in vitro samples were analyzed using HPLC (LC‐20A, Shimadzu, Kyoto, Japan) with a reversed‐phase column (Inertsil ODS‐3, 2.1 × 33 mm, ID. 3 μm, GL Sciences, Tokyo, Japan) held at 40°C. The mobile solvents used were water with 10 mM ammonium acetate (pH 4.0, A) and methanol (B) pumped at a flow rate of 0.4 mL/min. The following gradient was employed: 10%–90% B (0–0.5 min), 90% B (0.5–2.5 min), and 10% B (2.5–4 min). The eluent was monitored using a triple quadrupole mass spectrometer (API 4000, AB Sciex, Framingham, MA, USA) incorporating an electrospray ion source (ESI) operating in the multiple reaction monitoring mode. The ESI source was operated in negative ionization mode at 600°C with a spray voltage of −4.5 kV. The curtain gas (nitrogen), collision gas (nitrogen), nebulizer gas (whole air), and drying gas (whole air) were set at 40, 5, 50, and 70 psi, respectively. […] Artepillin C and drupanin were diluted in 50% methanol to concentrations of 1.6, 3.2, 8, 40, 200, 1000, and 2000 nM and were used as external standards. Sulfaphenazole (0.2 μM) was used as an internal standard.
(§3) The apparent permeability coefficients (Papp) for both directions, from the apical side to the basolateral side (A to B) and from the basolateral side to the apical side (B to A) in the cell monolayer, were calculated using the following equation: (1) Papp=dQ/dt/A×C0 where dQ/dt is the permeation rate (nmol/s), A is the membrane area (cm^2), and C0 is the initial concentration of the compound in the donor compartment (nM). The efflux ratios (ER) in the B‐to‐A and A‐to‐B directions were determined using the following equation: (2) ER=PappBtoA/PappAtoB
(§4) Net flux ratios were calculated by dividing the ER obtained from MDCK II‐MDR1 (or BCRP) cells by that obtained from the parent MDCK II cells.

[2] = molecular target: T2, breast cancer resistance protein (BCRP) (Homo sapiens, UniProt Q9UNQ0); test: Bidirectional transport assay across MDCK II-BCRP cell monolayer; type: in vitro ADME; settings: for Net flux ratio: ER of MDCK II‐BCRP divided by ER of parent MDCK II, >2 = transporter-mediated efflux; for substrate of BCRP (in words): bidirectional transport assay, net flux ratio criterion
T2 construct: host or cells: MDCK II (Madin-Darby canine kidney) cells overexpressing BCRP
T2 sequence (Q9UNQ0 1-655): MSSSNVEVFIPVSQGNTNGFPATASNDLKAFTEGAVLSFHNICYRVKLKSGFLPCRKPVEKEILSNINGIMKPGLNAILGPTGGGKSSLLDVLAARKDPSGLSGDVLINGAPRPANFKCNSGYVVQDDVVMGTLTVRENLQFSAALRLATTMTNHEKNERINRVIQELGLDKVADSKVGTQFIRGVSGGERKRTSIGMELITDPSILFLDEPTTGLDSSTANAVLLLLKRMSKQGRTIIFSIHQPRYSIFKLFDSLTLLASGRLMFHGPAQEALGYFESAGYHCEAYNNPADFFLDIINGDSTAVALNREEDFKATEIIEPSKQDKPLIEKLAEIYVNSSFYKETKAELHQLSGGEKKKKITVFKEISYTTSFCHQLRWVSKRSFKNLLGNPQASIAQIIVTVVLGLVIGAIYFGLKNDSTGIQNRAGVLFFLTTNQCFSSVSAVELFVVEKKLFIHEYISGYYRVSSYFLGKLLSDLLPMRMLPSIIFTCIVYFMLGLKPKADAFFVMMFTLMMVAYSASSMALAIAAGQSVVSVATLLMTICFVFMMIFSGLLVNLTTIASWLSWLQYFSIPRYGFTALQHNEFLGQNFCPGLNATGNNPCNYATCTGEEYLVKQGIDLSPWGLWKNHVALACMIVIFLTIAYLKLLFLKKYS
Protocol: as §1, §2, §3, §4

[3] = 10 μM, 120 min, mean ± SE, n = 2
[4] = 10 μM, Papp B to A / Papp A to B

Compound	Net flux ratio [1]	Net flux ratio [2]	substrate of BCRP (in words) [2]	Papp MDCK II‐MDR1 A to B [1, 3]	Papp MDCK II‐MDR1 B to A [1, 3]	Flux ratio (MDCK II‐MDR1) (efflux ratio, ER) [1, 4]	Papp MDCK II‐BCRP A to B [2, 3]	Papp MDCK II‐BCRP B to A [2, 3]	Flux ratio (MDCK II‐BCRP) (efflux ratio, ER) [2, 4]
CC(C)=CCc1cc(/C=C/C(=O)O)ccc1O [drupanin]	0.9	20.4	substrates	–	–	–	–	–	–
CC(C)=CCc1cc(/C=C/C(=O)O)cc(CC=C(C)C)c1O [artepillin C]	1.1	2.0	substrates	13.3 ± 0.7 10^−6 cm/s	11.4 ± 0.8 10^−6 cm/s	0.9	9.7 ± 0.2 10^−6 cm/s	16.0 ± 0.01 10^−6 cm/s	1.6
